We go through seven molecules from patent US9050275B2, “Methods of screening for and treating autism spectrum disorders and compositions for same” (Theta Biomedical Consulting & Development Co., Inc., priority 2009, dated 2015).

“And” between values parts separate entries of the source, which are not always exact repeats. Equal values may be shown once. Read-outs that look alike come from different tables or passages of the source. Where no end group is shown, it is not given here.

In data set [1] the test system is Male BALB/6 mice. The data set is described as follows: Brain blood vessel leakage by Evans blue extravasation. Type of data set: in vivo.
Experimental: Male BALB/6 mice (6 weeks old, Jackson Laboratories, Bar Harbor, Me.) were injected in their tail vein with 0.2 ml of Evans blue (0.4%). Binding of Evans blue to the albumin found in the blood prevents Evans blue from escaping the circulation and constitutes a good biomarker from extravasation in brain parenchyma.
Mice were anesthetized with a single intraperitoneal injection of ketamine/xylazine (10 mg/kg and 80 mg/kg body weight, each), an intracardiac catheter was inserted in the left ventricle, blood was withdrawn, and 10 ml normal saline was administered intracardially to wash any Evans blue from the systemic circulation. The mice were then decapitated and the whole brain was removed. For brain extravasated Evans blue measurements, the brains were first weighed and the Evans blue was then extracted in 1 ml of N,N-dimethylformamide overnight at 55° C. and the optical density was measured at 620 nm using a PerkinElmer Luminescence Spectrophotometer (Perkin Elmer, Norwalk, Conn.). EB concentration was calculated using a standard curve and values were normalized to the tissue weight and expressed as arbitrary units/mg of tissue. Five animals per group were estimated to be sufficient for significant differences given the variability (<50%) observed. […] Values were then compared using the non-parametric Mann-Whitney U test. Significance is denoted by p<0.05.
In data set [2] the test system is human cultured LAD2 cells. The data set is described as follows: Release of mitochondrial DNA from LAD2 mast cells (real time PCR). The conditions noted are these: 5 min pretreatment with luteolin; neurotensin stimulation. The class given is cell-based.
Text: Total DNA was extracted from supernatant fluids of cultured LAD2 cells using Qiagen DNA Micro extraction kit (Qiagen, Calif.). Mitochondrial specific DNA for Cytochrome B (Mt-CytB) and 7S (Mt-7S) was detected and quantified by Real time PCR using Taqman assay (Mt-7S: Hs02596861_s1; Mt-CYB: Hs02596867_s1; GAPDH: Hu, VIC, TAMRA, Applied Biosystems, Calif.). GAPDH DNA was used to exclude any genomic “contamination.”
For data set [3], the system named is LAD2 human mast cells. Briefly: cells. Type of data set: cell-based. The settings on record: for inhibition at 100 µM: Homo sapiens, LAD2, luteolin 0.1 mM, 10 min pretreatment; for VEGF release / SP-induced VEGF release / HgCl2-induced VEGF release: 24 hours. The method, then:
(§1) LAD2 human mast cells were cultured in serum-free media (StemPro-34; GIBCO, Grand Island, N.Y.) supplemented with 2 mM L-glutamine, 100 IU/ml penicillin, 50 μg/ml streptomycin, and 100 ng/ml recombinant human Stem Cell Factor (rhSCF, obtained from Amgen, Inc., Thousand Oaks, Calif.). For optimal cell growth, LAD2 cell density was maintained between 0.5×106 and 1×10^6 cells/ml. Cell viability was assessed at 1 and 24 hr using trypan blue (0.3%) exclusion.
LAD2 cells were washed with DPBS and suspended in complete culture medium. LAD2 cells (2×10^5 cells/well/200 μl) were plated in 96 well flat bottom Falcon cell culture plates (Becton Dickinson, Franklin Lakes, N.J.) and were pre-incubated for 15 min at 37° C. in 5% CO2 atmosphere. The cells were then incubated with either SP (2 μM), HgCl2 (10 μM), or thimerosal (1, 10 μM) for 24 hours at 37° C. Control cells were treated with equal volume of only culture medium. For the inhibition experiments, thimerosal or methyl thiosalicylate were added together with the triggers, while luteolin was added 10 min before the triggers. After the reaction time, plates were centrifuged and the supernatant was gently collected from the wells and stored at −20° C. until VEGF was measured by Enzyme-Linked Immunosorbent Assay (ELISA) using a commercial kit (R&D Systems, Minneapolis, Minn.). The minimum detectable level of VEGF was 5 pg/ml.

In data set [4] the test system is LAD2 human mast cells. The settings on record: thimerosal 10 μM, 24 hours, trypan blue exclusion. The method, then:
as §1

The test system of data set [5] is mast cells. The data set is described as follows: Inhibition of mast cells by quercetin. Type of data set: cell-based. The settings on record: Mast cell.
[6] abbreviates: substance 10 μM added together with SP (2 μM).

On to `O=c1cc(-c2ccc(O)c(O)c2)oc2cc(O)cc(O)c12` [luteolin, 5,7,3′,4′-tetrahydroxyflavone], for which the “inhibition of NT-induced brain blood vessel leakage” value in data set [1] (pretreatment with luteolin 40 mg/kg body weight mixed in olive kernel extract, NT 500 nmol/kg ip) is “completely inhibited”. For the same molecule, the “inhibition of brain blood vessel leakage induced by IL-33 and NT” value in data set [1] (pretreatment with the same amount of luteolin (40 mg/kg), IL-33 1 microg/mouse plus NT) is on record as 50%. Also, the “inhibition of release of extracellular mt components from mast cells” value in data set [2] is given as “can be inhibited”. Further, the inhibition at 100 µM stood at 100% in data set [3] (HgCl2 10 μM, read-out: inhibition of HgCl2-stimulated VEGF release) and 100% in data set [3] (thimerosal 10 μM, read-out: inhibition of thimerosal-stimulated VEGF release).

For the molecule `C[CH2][Hg][S]c1ccccc1C(=O)[O-].[Na+]` [thimerosal], the VEGF release in data set [3] (1 μM, no other trigger) came to 326±12 pg/106 cells; in data set [3] (10 μM, no other trigger) it was 335±12 pg/106 cells. For the same molecule, the “SP-induced VEGF release” value in data set [3] (setting [6]) turned out to be 274.5±35 pg/106 cells. Besides, the decrease of viability entry in data set [4] is reported as “less than 10%”.

In turn, `O=c1c(O)c(-c2ccc(O)c(O)c2)oc2cc(O)cc(O)c12` [Quercetin] had an inhibition at 10 µM in data set [5] of 80%.

Turning to `COC(=O)c1ccccc1S` [Methyl thiosalicylate, methyl thiosalicylate], the results for the “SP-induced VEGF release” value in data set [3] (substance 1 μM added together with SP (2 μM)) and in data set [3] (setting [6]) were 281.63±24 pg/106 cells and 185.85±23 pg/106 cells, respectively. Further, the “HgCl2-induced VEGF release” value in data set [3] (substance 1 μM added with HgCl2 (10 μM)) amounted to 258±29 pg/106 cells; in data set [3] (substance 10 μM added with HgCl2 (10 μM)), 249.5±24 pg/106 cells.

Regarding “Substance P (RPKPQQFFGLM-NH2; ends and bridges not checked; UniProt P20366 58-68, looked up) [SP, neuropeptide, non-allergic mast cell trigger]”, the VEGF release in data set [3] (SP 2 μM alone) is 445±16 pg/106 cells and 413.72±18 pg/106 cells.

The molecule `[Cl][Hg][Cl]` [HgCl2, Mercury chloride] displayed a VEGF release in data set [3] (10 μM, no other trigger) of 488±76 pg/106 cells. The “SP-induced VEGF release” value in data set [3] (setting [6]) stood at 553±63 pg/106 cells.

B1: IL-33: interleukin-33, cytokine injected intraperitoneally (protein, UniProt O95760 1-270, looked up)
Interleukin-33: MKPKMKYSTNKISTAKWKNTASKALCFKLGKSQQKAKEVCPMYFMKLRSGLMIKKEACYFRRETTKRPSLKTGRKHKRHLVLAACQQQSTVECFAFGISGVQKYTRALHDSSITGISPITEYLASLSTYNDQSITFALEDESYEIYVEDLKKDEKKDKVLLSYYESQHPSNESGDGVDGKMLMVTLSPTKDFWLHANNKEHSVELHKCEKPLPDQAFFVLHNMHSNCVSFECKTDPGVFIGVKDNHLALIKVDSSENLCTENILFKLSET
With B1, the brain leakage entry in data set [1] (IL-33 1 microg/mouse, alone or with NT, Evans blue extravasation) is “no effect”.
